target: T1, Full length human recombinant HDAC6 protein (Homo sapiens, UniProt Q9UBN7); assay: In vitro histone deacetylase assay: enzymatic HDAC6 electrophoretic mobility shift assay; assay type: biochemical; conditions: 1 nM enzyme, 2 μM peptide substrate RHKK(Ac)-NH2, 25° C., 12 concentrations; read-out: Inhibitory Concentration (IC50) Values against HDAC6, Activity Range
T1 sequence (Q9UBN7 1-1215): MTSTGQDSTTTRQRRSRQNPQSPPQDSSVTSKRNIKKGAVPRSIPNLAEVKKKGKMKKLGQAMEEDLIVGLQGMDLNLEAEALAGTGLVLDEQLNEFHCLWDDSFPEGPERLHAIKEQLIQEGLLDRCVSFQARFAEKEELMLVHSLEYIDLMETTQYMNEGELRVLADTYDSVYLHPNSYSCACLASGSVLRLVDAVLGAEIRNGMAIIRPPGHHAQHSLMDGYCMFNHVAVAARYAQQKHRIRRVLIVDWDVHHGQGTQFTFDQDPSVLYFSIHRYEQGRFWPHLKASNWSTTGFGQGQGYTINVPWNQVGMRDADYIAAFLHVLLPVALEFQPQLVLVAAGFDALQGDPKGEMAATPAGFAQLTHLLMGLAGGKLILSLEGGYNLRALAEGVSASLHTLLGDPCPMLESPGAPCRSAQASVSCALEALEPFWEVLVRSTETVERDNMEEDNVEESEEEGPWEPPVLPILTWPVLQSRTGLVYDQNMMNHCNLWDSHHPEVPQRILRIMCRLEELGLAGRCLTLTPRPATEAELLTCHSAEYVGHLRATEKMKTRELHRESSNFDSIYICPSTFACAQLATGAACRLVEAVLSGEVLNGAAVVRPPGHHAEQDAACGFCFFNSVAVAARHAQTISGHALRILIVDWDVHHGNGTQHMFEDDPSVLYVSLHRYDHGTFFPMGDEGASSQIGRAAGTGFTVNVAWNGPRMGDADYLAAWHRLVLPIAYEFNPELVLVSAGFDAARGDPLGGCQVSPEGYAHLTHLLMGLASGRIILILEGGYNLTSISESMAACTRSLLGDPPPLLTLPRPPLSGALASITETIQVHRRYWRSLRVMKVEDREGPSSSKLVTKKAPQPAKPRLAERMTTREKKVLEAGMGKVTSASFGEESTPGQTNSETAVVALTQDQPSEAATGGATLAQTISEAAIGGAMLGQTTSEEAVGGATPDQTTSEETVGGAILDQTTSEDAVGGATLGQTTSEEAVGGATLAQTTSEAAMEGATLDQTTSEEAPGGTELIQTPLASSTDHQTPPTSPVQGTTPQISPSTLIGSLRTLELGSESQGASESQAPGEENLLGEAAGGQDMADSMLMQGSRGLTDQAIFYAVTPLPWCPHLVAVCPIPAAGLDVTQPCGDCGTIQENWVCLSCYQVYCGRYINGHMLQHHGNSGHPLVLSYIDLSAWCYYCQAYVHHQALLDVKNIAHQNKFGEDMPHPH

Row | IC50 [nM] | Compound
1 | > 500 | O=C(NO)c1ccc2c(c1)OCCN(C(=O)C1(O)CC1)C2 [N-hydroxy-4-(1-hydroxycyclopropane-1-carbonyl)-2,3,4,5-tetrahydrobenzo[f][1,4]oxazepine-8-carboxamide]
2 | ≤ 100 | COC1(C(=O)N2CCOc3cc(C(=O)NO)ccc3C2)CCC1 [N-hydroxy-4-(1-methoxycyclobutane-1-carbonyl)-2,3,4,5-tetrahydrobenzo[f][1,4]oxazepine-8-carboxamide]
3 | ≤ 100 | COC1(C(=O)N2CCOc3cc(C(=O)NO)ccc3C2)CC1 [N-hydroxy-4-(1-methoxycyclopropane-1-carbonyl)-2,3,4,5-tetrahydrobenzo[f][1,4]oxazepine-8-carboxamide]
4 | ≤ 100 | Cn1c(C(=O)N2CCOc3cc(C(=O)NO)ccc3C2)cc2ccccc21 [N-hydroxy-4-(1-methyl-1H-indole-2-carbonyl)-2,3,4,5-tetrahydrobenzo[f][1,4]oxazepine-8-carboxamide]
5 | ≤ 100 | Cn1ccc(C(=O)N2CCOc3cc(C(=O)NO)ccc3C2)n1 [N-hydroxy-4-(1-methyl-1H-pyrazole-3-carbonyl)-2,3,4,5-tetrahydrobenzo[f][1,4]oxazepine-8-carboxamide]
6 | ≤ 100 | Cn1cccc1C(=O)N1CCOc2cc(C(=O)NO)ccc2C1 [N-hydroxy-4-(1-methyl-1H-pyrrole-2-carbonyl)-2,3,4,5-tetrahydrobenzo[f][1,4]oxazepine-8-carboxamide]
7 | > 500 | Cn1cc(C(=O)N2CCOc3cc(C(=O)NO)ccc3C2)ccc1=O [N-hydroxy-4-(1-methyl-6-oxo-1,6-dihydropyridine-3-carbonyl)-2,3,4,5-tetrahydrobenzo[f][1,4]oxazepine-8-carboxamide]
8 | ≤ 100 | CC1(C(=O)N2CCOc3cc(C(=O)NO)ccc3C2)CCC1 [N-hydroxy-4-(1-methylcyclobutane-1-carbonyl)-2,3,4,5-tetrahydrobenzo[f][1,4]oxazepine-8-carboxamide]
9 | 100 to 500 | CC1(C(=O)N2CC(=O)Nc3ccc(C(=O)NO)cc3C2)CCC1 [N-hydroxy-4-(1-methylcyclobutane-1-carbonyl)-2-oxo-2,3,4,5-tetrahydro-1H-benzo[e][1,4]diazepine-7-carboxamide]
10 | ≤ 100 | CC1(C(=O)N2CCOc3cc(C(=O)NO)ccc3C2)CCCCC1 [N-hydroxy-4-(1-methylcyclohexane-1-carbonyl)-2,3,4,5-tetrahydrobenzo[f][1,4]oxazepine-8-carboxamide]
11 | ≤ 100 | CC1(C(=O)N2CCOc3cc(C(=O)NO)ccc3C2)CCCC1 [N-hydroxy-4-(1-methylcyclopentane-1-carbonyl)-2,3,4,5-tetrahydrobenzo[f][1,4]oxazepine-8-carboxamide]
12 | ≤ 100 | CC1(C(=O)N2CCOc3cc(C(=O)NO)ccc3C2)CC1 [N-hydroxy-4-(1-methylcyclopropane-1-carbonyl)-2,3,4,5-tetrahydrobenzo[f][1,4]oxazepine-8-carboxamide]
13 | 100 to 500 | O=C(NO)c1ccc2c(c1)OCCN(C(=O)C1(Oc3ccccc3)CC1)C2 [N-hydroxy-4-(1-phenoxycyclopropane-1-carbonyl)-2,3,4,5-tetrahydrobenzo[f][1,4]oxazepine-8-carboxamide]
14 | ≤ 100 | O=C(NO)c1ccc2c(c1)OCCN(C(=O)C1(c3ccccc3)CCC1)C2 [N-hydroxy-4-(1-phenylcyclobutane-1-carbonyl)-2,3,4,5-tetrahydrobenzo[f][1,4]oxazepine-8-carboxamide]
15 | ≤ 100 | O=C(NO)c1ccc2c(c1)OCCN(C(=O)C1(c3ccccc3)CC1)C2 [N-hydroxy-4-(1-phenylcyclopropane-1-carbonyl)-2,3,4,5-tetrahydrobenzo[f][1,4]oxazepine-8-carboxamide]
16 | ≤ 100 | O=C(NO)c1ccc2c(c1)OCCN(C(=O)c1ccc3[nH]ccc3c1)C2 [N-hydroxy-4-(1H-indole-5-carbonyl)-2,3,4,5-tetrahydrobenzo[f][1,4]oxazepine-8-carboxamide]

Row | IC50 [nM] | Compound
17 | > 500 | CS(=O)(=O)N1CCC(CC(=O)N2CCOc3cc(C(=O)NO)ccc3C2)CC1 [N-hydroxy-4-(2-(1-(methylsulfonyl)piperidin-4-yl)acetyl)-2,3,4,5-tetrahydrobenzo[f][1,4]oxazepine-8-carboxamide]
18 | > 500 | COc1ccccc1C(C)(C)C(=O)N1CCOc2cc(C(=O)NO)ccc2C1 [N-hydroxy-4-(2-(2-methoxyphenyl)-2-methylpropanoyl)-2,3,4,5-tetrahydrobenzo[f][1,4]oxazepine-8-carboxamide]
19 | 100 to 500 | Cc1nc(CC(=O)N2CCOc3cc(C(=O)NO)ccc3C2)cs1 [N-hydroxy-4-(2-(2-methylthiazol-4-yl)acetyl)-2,3,4,5-tetrahydrobenzo[f][1,4]oxazepine-8-carboxamide]
20 | 100 to 500 | O=C(NO)c1ccc2c(c1)OCCN(C(=O)Cn1cccc(C(F)(F)F)c1=O)C2 [N-hydroxy-4-(2-(2-oxo-3-(trifluoromethyl)pyridin-1(2H)-yl)acetyl)-2,3,4,5-tetrahydrobenzo[f][1,4]oxazepine-8-carboxamide]
21 | 100 to 500 | O=C(NO)c1ccc2c(c1)OCCN(C(=O)C(c1ccccc1)N1CCCCC1=O)C2 (stereo not drawn) [N-hydroxy-4-(2-(2-oxopiperidin-1-yl)-2-phenylacetyl)-2,3,4,5-tetrahydrobenzo[f][1,4]oxazepine-8-carboxamide]
22 | > 500 | O=C(NO)c1ccc2c(c1)OCCN(C(=O)Cc1ccccc1Oc1ccccc1)C2 [N-hydroxy-4-(2-(2-phenoxyphenyl)acetyl)-2,3,4,5-tetrahydrobenzo[f][1,4]oxazepine-8-carboxamide]
23 | 100 to 500 | COc1cccc(C(C)(C)C(=O)N2CCOc3cc(C(=O)NO)ccc3C2)c1 [N-hydroxy-4-(2-(3-methoxyphenyl)-2-methylpropanoyl)-2,3,4,5-tetrahydrobenzo[f][1,4]oxazepine-8-carboxamide]
24 | > 500 | O=C(NO)c1ccc2c(c1)OCCN(C(=O)Cc1ccc(C(F)(F)F)cc1)C2 [N-hydroxy-4-(2-(4-(trifluoromethyl)phenyl)acetyl)-2,3,4,5-tetrahydrobenzo[f][1,4]oxazepine-8-carboxamide]
25 | 100 to 500 | O=C(NO)c1ccc2c(c1)OCCN(C(=O)C(c1ccccc1)N1CCC(O)CC1)C2 (stereo not drawn) [N-hydroxy-4-(2-(4-hydroxypiperidin-1-yl)-2-phenylacetyl)-2,3,4,5-tetrahydrobenzo[f][1,4]oxazepine-8-carboxamide]
26 | ≤ 100 | COc1ccc(OCC(=O)N2CCOc3cc(C(=O)NO)ccc3C2)cc1 [N-hydroxy-4-(2-(4-methoxyphenoxy)acetyl)-2,3,4,5-tetrahydrobenzo[f][1,4]oxazepine-8-carboxamide]
27 | > 500 | COc1ccc(CC(=O)N2CCOc3ccc(C(=O)NO)cc3C2)cc1 [N-hydroxy-4-(2-(4-methoxyphenyl)acetyl)-2,3,4,5-tetrahydrobenzo[f][1,4]oxazepine-7-carboxamide]
28 | > 500 | COc1ccc(CC(=O)N2CCOc3cc(C(=O)NO)ccc3C2)cc1 [N-hydroxy-4-(2-(4-methoxyphenyl)acetyl)-2,3,4,5-tetrahydrobenzo[f][1,4]oxazepine-8-carboxamide]
29 | > 500 | COc1ccc(CC(=O)N2CC(=O)Nc3ccc(C(=O)NO)cc3C2)cc1 [N-hydroxy-4-(2-(4-methoxyphenyl)acetyl)-2-oxo-2,3,4,5-tetrahydro-1H-benzo[e][1,4]diazepine-7-carboxamide]
30 | > 500 | COc1ccc2[nH]cc(CC(=O)N3CCOc4cc(C(=O)NO)ccc4C3)c2c1 [N-hydroxy-4-(2-(5-methoxy-1H-indol-3-yl)acetyl)-2,3,4,5-tetrahydrobenzo[f][1,4]oxazepine-8-carboxamide]
31 | 100 to 500 | Cc1nnnn1C(C(=O)N1CCOc2cc(C(=O)NO)ccc2C1)c1ccccc1 (stereo not drawn) [N-hydroxy-4-(2-(5-methyl-1H-tetrazol-1-yl)-2-phenylacetyl)-2,3,4,5-tetrahydrobenzo[f][1,4]oxazepine-8-carboxamide]
32 | ≤ 100 | CC(C(=O)N1CCOc2cc(C(=O)NO)ccc2C1)c1cccnc1 (stereo not drawn) [N-hydroxy-4-(2-(pyridin-3-yl)propanoyl)-2,3,4,5-tetrahydrobenzo[f][1,4]oxazepine-8-carboxamide]

Row | Compound | IC50 [nM]
33 | CC(C)COc1ccc(C(C)(C)C(=O)N2CCOc3cc(C(=O)NO)ccc3C2)cc1 [N-hydroxy-4-(2-(4-isobutoxyphenyl)-2-methylpropanoyl)-2,3,4,5-tetrahydrobenzo[f][1,4]oxazepine-8-carboxamide] | 100 to 500

Reference: patent publication US11891365B2, “3-alkyl-4-amido-bicyclic [4,5,0] hydroxamic acids as HDAC inhibitors” (Valo Health, Inc., priority 2015, dated 2024)
